According to paper PMC9865890, “N-Derivatives of (Z)-Methyl 3-(4-Oxo-2-thioxothiazolidin-5-ylidene)methyl)-1H-indole-2-carboxylates as Antimicrobial Agents—In Silico and In Vitro Evaluation” (Pharmaceuticals, 2023):
≈ marks a conversion by molar mass, not a printed value. Read-outs that look alike come from different tables or passages of the source.

Assays:
[1] = system: P. ochrochloron; experiment: Antifungal bioassay (MIC/MFC); format: cell-based; settings: Penicillium ochrochloron; for MFC: P.o. (P. ochrochloron); for MIC: P.o. (P. ochrochloron; text: P. ochramensis), read-out: MIC
Experimental: (§1) For the antifungal bioassays, six fungi were used: […] The organisms were obtained from the Mycological Laboratory, Department of Plant Physiology, Institute for Biological Research “Siniša Stankovic”, Belgrade, Serbia. All experiments were performed in duplicate.

[2] = system: Aspergillus fumigatus (ATCC 1022); experiment: Antifungal bioassay (MIC/MFC); format: cell-based; settings: ATCC1022, A.f. (A. fumigatus)
Experimental: as §1

[3] = system: Aspergillus versicolor (ATCC 11730); experiment: Antifungal bioassay (MIC/MFC); format: cell-based; settings: ATCC11730, A.v. (A. versicolor)
Experimental: as §1

[4] = system: A. ochraceus; experiment: Antifungal bioassay (MIC/MFC); format: cell-based; settings: A.o. (A. ochraceus)
Experimental: as §1

[5] = system: Trichoderma viride (IAM 5061); experiment: Antifungal bioassay (MIC/MFC); format: cell-based; settings: T.v. (T. viride)
Experimental: as §1

[6] = system: Aspergillus niger (ATCC 6275); experiment: Antifungal bioassay (MIC/MFC); format: cell-based; settings: ATCC6275, A.n. (A. niger)
Experimental: as §1

[7] = system: Penicillium funiculosum (ATCC 36839); experiment: Antifungal bioassay (MIC/MFC); format: cell-based; settings: Talaromyces funiculosus, ATCC36839; P.f. (P. funiculosum)
Experimental: as §1

[8] = system: Penicillium verrucosum var. cyclopium (food isolate); experiment: Antifungal bioassay (MIC/MFC); format: cell-based
Experimental: For the antifungal bioassays, six fungi were used: Aspergillus niger (ATCC 6275), Aspergillus fumigatus (ATCC 1022), Aspergillus versicolor (ATCC 11730), Penicillium funiculosum (ATCC 36839), Trichoderma viride (IAM 5061), and Penicillium verrucosum var. cyclopium (food isolate). The organisms were obtained from the Mycological Laboratory, Department of Plant Physiology, Institute for Biological Research “Siniša Stankovic”, Belgrade, Serbia. All experiments were performed in duplicate.

[9] = system: Bacillus cereus (clinical isolate); experiment: Antibacterial microdilution (MIC/MBC); format: cell-based; settings: Bacillus cereus, B.c. (B. cereus); for MIC: read-out: MIC
Experimental: (§2) The synthesized compounds (Table 1) were evaluated for their antibacterial activity against a panel of eight species using a microdilution method with ampicillin and streptomycin as reference drugs. […] The order of activity can be presented as: 8 > 11 > 2 > 1 > 12 > 3 > 17 > 7 > 5 > 13 > 14 > 16 > 9 > 4 = 6 > 15 > 10. […] Cloacae. […] The most sensitive bacteria appeared to be En. cloacae, while E. coli was the most resistant one, followed by M. flavus.
(§3) The following Gram-negative bacteria: Escherichia coli (ATCC 35210), Enterobacter cloacae (clinical isolate), Salmonella typhimurium (ATCC 13311), as well as Gram-positive bacteria: Listeria monocytogenes (NCTC 7973), Bacillus cereus (clinical isolate), and Staphylococcus aureus (ATCC 6538) were used. The organisms were obtained from the Mycological Laboratory, Department of Plant Physiology, Institute for Biological Research “Siniša Stankovic”, Belgrade, Serbia. The minimum inhibitory (MIC) and minimum bactericidal (MBC) concentrations were determined by the modified microdilution method, as previously reported.

[10] = system: Salmonella typhimurium (ATCC 13311); experiment: Antibacterial microdilution (MIC/MBC); format: cell-based; settings: Salmonella enterica, S.t. (S. typhimurium); for MIC: read-out: MIC
Experimental: as §2, §3

[11] = system: Escherichia coli (ATCC 35210); experiment: Antibacterial microdilution (MIC/MBC); format: cell-based; settings: Escherichia coli, ATCC35210, E. coli; for MIC: read-out: MIC
Experimental: as §2, §3

[12] = system: Enterobacter cloacae (clinical isolate); experiment: Antibacterial microdilution (MIC/MBC); format: cell-based; settings: Enterobacter cloacae, En.cl (En. cloacae); for MIC: read-out: MIC
Experimental: as §2, §3

[13] = system: Staphylococcus aureus (ATCC 6538); experiment: Antibacterial microdilution (MIC/MBC); format: cell-based; settings: S.a. (S. aureus)
Experimental: as §2, §3

[14] = system: Listeria monocytogenes (NCTC 7973); experiment: Antibacterial microdilution (MIC/MBC); format: cell-based; settings: Listeria monocytogenes, NCTC7973, L.m. (L. monocytogenes); for MIC: read-out: MIC
Experimental: as §2, §3

[15] = system: M. flavus; experiment: Antibacterial microdilution (MIC/MBC); format: cell-based; settings: Micrococcus flavus; M.f. (M. flavus)
Experimental: as §2, §3

[16] = system: P. aeruginosa; experiment: Antibacterial microdilution (MIC/MBC); format: cell-based; settings: Pseudomonas aeruginosa, P.a. (P. aeruginosa); for MIC: read-out: MIC
Experimental: as §2, §3

[17] = Aspergillus ochraceus, read-out: MIC
[18] = Trichoderma viride, IAM5061, read-out: MIC
[19] = Staphylococcus aureus, ATCC6538
[20] = Staphylococcus aureus, ATCC6538, read-out: MIC

| SMILES | melting point [°C] | MFC [1] [µg/mL] | MIC [1] [µg/mL] | MFC [2] [µg/mL] | MIC [2] [µg/mL] | MFC [3] [µg/mL] | MIC [3] [µg/mL] | MFC ([4]; Aspergillus ochraceus) [µg/mL] | MIC [4, 17] [µg/mL] | MIC [5] [µg/mL] | MFC ([5]; Trichoderma viride, IAM5061) [µg/mL] | MIC [5, 18] [µg/mL] | MFC [6] [µg/mL] | MIC [6] [µg/mL] | MFC [7] [µg/mL] | MIC [7] [µg/mL] | MFC [8] [µg/mL] | MIC [8] [µg/mL] | MBC [9] [µg/mL] | MIC [9] [µg/mL] | also measured |
| --- | --- | --- | --- | --- | --- | --- | --- | --- | --- | --- | --- | --- | --- | --- | --- | --- | --- | --- | --- | --- | --- |
| COC(=O)c1[nH]c2ccccc2c1/C=C1\SC(=S)N(c2ccc(O)cc2)C1=O [Compound 4, (Z)-methyl 3-((3-(4-hydroxyphenyl)-4-oxo-2-thioxothiazolidin-5-ylidene)methyl)-1H-indole-2-carboxylate] | 282 to 284 | 30 ± 10 (≈ 73.1 µM) | 15 ± 3 (≈ 36.5 µM) | 120 ± 40 (≈ 292 µM) | 60 ± 6 (≈ 146 µM) | 15 ± 3 (≈ 36.5 µM) | 8 ± 0.6 (≈ 19.5 µM) | 15 ± 3 (≈ 36.5 µM) | 8 ± 0.6 (≈ 19.5 µM) | 8 ± 0.6 (≈ 19.5 µM) | 15 ± 3 (≈ 36.5 µM) | 8 (≈ 19.5 µM) | 30 ± 10 (≈ 73.1 µM) | 15 ± 3 (≈ 36.5 µM) | 30 ± 10 (≈ 73.1 µM) | 15 ± 3 (≈ 36.5 µM) | 60 ± 6 (≈ 146 µM) | 30 ± 10 (≈ 73.1 µM) | 60 ± 6 (≈ 146 µM) | 30 ± 10 (≈ 73.1 µM) | MBC [10]: 60 ± 6 µg/mL (≈ 146 µM); MIC [10]: 45 ± 3 µg/mL (≈ 110 µM); MBC [11]: 60 ± 6 µg/mL (≈ 146 µM); MIC [11]: 45 ± 3 µg/mL (≈ 110 µM); MBC [12]: 30 ± 10 µg/mL (≈ 73.1 µM); MIC [12]: 15 ± 9 µg/mL (≈ 36.5 µM); MBC [13, 19]: 60 ± 6 µg/mL (≈ 146 µM); MIC [13, 20]: 30 ± 10 µg/mL (≈ 73.1 µM); MBC [14]: 60 ± 6 µg/mL (≈ 146 µM); MIC [14]: 45 ± 1 µg/mL (≈ 110 µM); MBC [15]: 60 ± 6 µg/mL (≈ 146 µM); MIC [15]: 45 ± 3 µg/mL (≈ 110 µM); MBC [16]: 60 ± 6 µg/mL (≈ 146 µM); MIC [16]: 30 ± 10 µg/mL (≈ 73.1 µM) |
| COC(=O)c1[nH]c2ccccc2c1/C=C1\SC(=S)N(CCCN2CCOCC2)C1=O [Compound 5, (Z)-methyl 3-((3-(3-morpholinopropyl)-4-oxo-2-thioxothiazolidin-5-ylidene)methyl)-1H-indole-2-carboxylate] | 213 to 214 | 15 ± 3 (≈ 33.7 µM) | 110 ± 10 (≈ 247 µM) | 120 ± 40 (≈ 269 µM) | 60 ± 6 (≈ 135 µM) | 15 ± 3 (≈ 33.7 µM) | 8 ± 0.6 (≈ 18 µM) | 15 ± 3 (≈ 33.7 µM) | 8 ± 0.6 (≈ 18 µM) | 4 ± 1 (≈ 8.98 µM) | 8 ± 0.6 (≈ 18 µM) | 4 (≈ 8.98 µM) | 30 ± 10 (≈ 67.3 µM) | 15 ± 3 (≈ 33.7 µM) | 30 ± 10 (≈ 67.3 µM) | 15 ± 3 (≈ 33.7 µM) | 30 ± 10 (≈ 67.3 µM) | 15 ± 3 (≈ 33.7 µM) | 60 ± 6 (≈ 135 µM) | 30 ± 10 (≈ 67.3 µM) | MBC [10]: 30 ± 10 µg/mL (≈ 67.3 µM); MIC [10]: 22 ± 5 µg/mL (≈ 49.4 µM); MBC [11]: 60 ± 6 µg/mL (≈ 135 µM); MIC [11]: 30 ± 10 µg/mL (≈ 67.3 µM); MBC [12]: 30 ± 10 µg/mL (≈ 67.3 µM); MIC [12]: 15 ± 9 µg/mL (≈ 33.7 µM); MIC [13]: 15 ± 9 µg/mL (≈ 33.7 µM); MBC [13, 19]: 30 ± 10 µg/mL (≈ 67.3 µM); MIC [13, 20]: 15 µg/mL (≈ 33.7 µM); MBC [14]: 60 ± 6 µg/mL (≈ 135 µM); MIC [14]: 30 ± 10 µg/mL (≈ 67.3 µM); MBC [15]: 60 ± 6 µg/mL (≈ 135 µM); MIC [15]: 45 ± 3 µg/mL (≈ 101 µM); MBC [16]: 60 ± 6 µg/mL (≈ 135 µM); MIC [16]: 30 ± 10 µg/mL (≈ 67.3 µM) |
| COC(=O)c1[nH]c2ccc(F)cc2c1/C=C1\SC(=S)N(CCCC(=O)O)C1=O [Compound 9, (Z)-4-(5-((5-fluoro-2-(methoxycarbonyl)-1H-indol-3-yl)methylene)-4-oxo-2-thioxothiazolidin-3-yl)butanoic acid] | 192 to 193 | 30 ± 10 (≈ 71 µM) | 15 ± 3 (≈ 35.5 µM) | 120 ± 40 (≈ 284 µM) | 90 ± 3 (≈ 213 µM) | 30 ± 10 (≈ 71 µM) | 15 ± 3 (≈ 35.5 µM) | 8 ± 0.6 (≈ 18.9 µM) | 4 (≈ 9.47 µM) | 8 ± 0.6 (≈ 18.9 µM) | 15 ± 3 (≈ 35.5 µM) | 8 (≈ 18.9 µM) | 30 ± 10 (≈ 71 µM) | 15 ± 3 (≈ 35.5 µM) | 30 ± 10 (≈ 71 µM) | 15 ± 3 (≈ 35.5 µM) | 15 ± 3 (≈ 35.5 µM) | 22 ± 5 (≈ 52.1 µM) | 60 ± 6 (≈ 142 µM) | 30 ± 10 (≈ 71 µM) | MIC [4]: 4 ± 1 µg/mL (≈ 9.47 µM); MBC [10]: 60 ± 6 µg/mL (≈ 142 µM); MIC [10]: 30 ± 10 µg/mL (≈ 71 µM); MBC [11]: 60 ± 6 µg/mL (≈ 142 µM); MIC [11]: 30 ± 10 µg/mL (≈ 71 µM); MBC [12]: 60 ± 6 µg/mL (≈ 142 µM); MIC [12]: 30 ± 10 µg/mL (≈ 71 µM); MBC [13, 19]: 60 ± 6 µg/mL (≈ 142 µM); MIC [13, 20]: 30 ± 10 µg/mL (≈ 71 µM); MBC [14]: 60 ± 6 µg/mL (≈ 142 µM); MIC [14]: 30 ± 10 µg/mL (≈ 71 µM); MBC [15]: 60 ± 6 µg/mL (≈ 142 µM); MIC [15]: 30 ± 10 µg/mL (≈ 71 µM); MBC [16]: 60 ± 6 µg/mL (≈ 142 µM); MIC [16]: 30 ± 10 µg/mL (≈ 71 µM) |
